Results on 8 molecules are retold here after PubChem BioAssay (NCI).

Some test systems named below: OVCAR-3 ovarian; EKVX NSCLC; NCI-H23 lung; SK-OV-3 ovarian; HOP-92 NSCLC; RXF 393 renal; ACHN renal; MDA-MB-231 breast; HCC-2998 colon; MDA-MB-435; HCT-15 colon; SK-MEL-5 melanoma; LOX IMVI melanoma; TK-10 renal; DU-145 prostate; HL-60(TB) leukemia; HCT-116 colon; M14 melanoma.
What all share (experiment): NCI tumour cell line growth inhibition, 48 h

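In this assay, cells in 96-well plates receive the compound at five concentrations for 48 hours. Endpoints are linearly interpolated between the surrounding concentrations. At the TGI there is no net growth.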

Take `CC/C(=N/O)c1ccc(Br)s1`: the TGI in the assay on OVCAR-3 ovarian, in the assay on EKVX NSCLC, in the assay with NCI-H23 lung, with SK-OV-3 ovarian, with HOP-92 NSCLC and in the assay with RXF 393 renal was above 100 µM each time. Further, the TGI with ACHN renal, in the assay on MDA-MB-231 breast, with HCC-2998 colon, with MDA-MB-435, in the assay on HCT-15 colon and in the assay on SK-MEL-5 melanoma was above 100 µM each time. For the same molecule, the TGI with LOX IMVI melanoma, in the assay with TK-10 renal, in the assay on DU-145 prostate, in the assay with HL-60(TB) leukemia, with HCT-116 colon and with M14 melanoma was above 100 µM throughout.

For the molecule `CC(=O)NCc1nc(C#N)c(N)o1`, the TGI with OVCAR-3 ovarian, in the assay with EKVX NSCLC, with NCI-H23 lung, with SK-OV-3 ovarian, in the assay with HOP-92 NSCLC and in the assay with RXF 393 renal was above 100 µM throughout. Besides, the TGI in the assay with ACHN renal, with MDA-MB-231 breast, in the assay with HCC-2998 colon, in the assay on MDA-MB-435, in the assay with HCT-15 colon and in the assay on LOX IMVI melanoma was above 100 µM in each case. The TGI in the assay with TK-10 renal, in the assay with DU-145 prostate, with HL-60(TB) leukemia, with HCT-116 colon and in the assay on M14 melanoma was above 100 µM throughout.

Consider `CCOC(=O)Cn1sc2ncc([N+](=O)[O-])cc2c1=O`, for which the TGI is 33.4 µM in the assay with OVCAR-3 ovarian; above 100 µM in the assay on EKVX NSCLC; 39.3 µM with NCI-H23 lung; 34.6 µM in the assay on SK-OV-3 ovarian; 26.9 µM with HOP-92 NSCLC; 35.4 µM in the assay with RXF 393 renal. Moreover, the TGI with ACHN renal turned out to be 29.5 µM; with MDA-MB-231 breast, 29.3 µM; in the assay with HCC-2998 colon it was 32.2 µM; in the assay with MDA-MB-435 it was 30 µM; in the assay on HCT-15 colon, 31.2 µM; with SK-MEL-5 melanoma, 85.3 µM. The TGI is 26.4 µM with LOX IMVI melanoma; 32.8 µM in the assay with TK-10 renal; above 100 µM with DU-145 prostate; above 100 µM in the assay with HL-60(TB) leukemia; 31.1 µM with HCT-116 colon.

Regarding `Cc1oc2nc(N(C)C)nc(Cl)c2c1C`, the TGI in the assay on OVCAR-3 ovarian, in the assay with EKVX NSCLC, in the assay on NCI-H23 lung, with HOP-92 NSCLC, in the assay with RXF 393 renal and in the assay on ACHN renal was above 100 µM in each case. In addition, the TGI with MDA-MB-231 breast, in the assay on HCC-2998 colon, with MDA-MB-435, in the assay with HCT-15 colon, with SK-MEL-5 melanoma and in the assay with TK-10 renal was above 100 µM in each case. In addition, the TGI in the assay on DU-145 prostate, in the assay with HL-60(TB) leukemia, with HCT-116 colon and with M14 melanoma was above 100 µM in each case.

For the molecule `Nc1nc(Cl)cc(NCC2(CO)CC(OCc3ccccc3)C2)n1` (stereo unspecified), the TGI in the assay on OVCAR-3 ovarian, in the assay with EKVX NSCLC, with NCI-H23 lung, in the assay with SK-OV-3 ovarian, with HOP-92 NSCLC and in the assay with RXF 393 renal was above 100 µM in each case. The TGI with ACHN renal, in the assay with MDA-MB-231 breast, with HCC-2998 colon, in the assay with MDA-MB-435, in the assay on HCT-15 colon and with SK-MEL-5 melanoma was above 100 µM each time. In addition, the TGI in the assay with LOX IMVI melanoma, in the assay with TK-10 renal, in the assay on DU-145 prostate, with HL-60(TB) leukemia and in the assay on HCT-116 colon was above 100 µM each time.

`COC12C=CC(CC1)C(C)(C)C2=O` (stereo unspecified): the TGI with OVCAR-3 ovarian, in the assay on EKVX NSCLC, in the assay with NCI-H23 lung, with SK-OV-3 ovarian, with HOP-92 NSCLC and in the assay with RXF 393 renal was above 100 µM each time. For the same molecule, the TGI in the assay with ACHN renal, in the assay on MDA-MB-231 breast, with HCC-2998 colon, in the assay with MDA-MB-435, with HCT-15 colon and with SK-MEL-5 melanoma was above 100 µM throughout. The TGI in the assay with TK-10 renal, with DU-145 prostate, with HL-60(TB) leukemia, in the assay with HCT-116 colon and in the assay with M14 melanoma was above 100 µM each time.

Take `COc1ccc(OC)c2c1C(=O)C(Cl)=C(N1CCN(CCOCCO)CC1)C2=O`: the TGI was found to be 31.1 µM in the assay on OVCAR-3 ovarian; 35.5 µM with EKVX NSCLC; 21.6 µM in the assay on NCI-H23 lung; 34 µM in the assay on SK-OV-3 ovarian; 31.8 µM with HOP-92 NSCLC; 33.4 µM with RXF 393 renal. Besides, the TGI came to 30.3 µM in the assay with ACHN renal; 27.7 µM in the assay on MDA-MB-231 breast; 24.9 µM in the assay with HCC-2998 colon; 27.9 µM in the assay on MDA-MB-435; 18.4 µM in the assay with HCT-15 colon; 31.3 µM in the assay with SK-MEL-5 melanoma. Moreover, the TGI worked out at 33.4 µM in the assay with TK-10 renal; 32.8 µM in the assay with DU-145 prostate; 3.33 µM in the assay with HL-60(TB) leukemia; 17 µM with HCT-116 colon; 31.7 µM in the assay with M14 melanoma.

Turning to `CC(=O)O[C@@H]1C=C(C)[C@H](CBr)O[C@@]2(C)CC[C@H](Br)C(C)(C)[C@H]12`, the TGI in the assay on EKVX NSCLC, in the assay with NCI-H23 lung, in the assay with SK-OV-3 ovarian, in the assay with HOP-92 NSCLC, with RXF 393 renal and with ACHN renal was above 100 µM throughout. The TGI in the assay on MDA-MB-231 breast, in the assay with HCC-2998 colon, with MDA-MB-435, in the assay on HCT-15 colon, in the assay on SK-MEL-5 melanoma and with LOX IMVI melanoma was above 100 µM each time. In addition, the TGI with TK-10 renal, in the assay on DU-145 prostate, in the assay on HL-60(TB) leukemia, in the assay with HCT-116 colon and in the assay on M14 melanoma was above 100 µM in each case.
